Data on five molecules can be found in PMC5514404 (EBioMedicine, 2017).

For one data set, the system named is HIV-1 replication. The conditions noted are these: ref Ewart et al., 2004; cited from earlier work.
Data set [1] concerns extracellular HIV-1 Tat release from HEK293T cells. Nature of the data set: HIV-1 Tat secretion assay. It is filed as cell-based, human.
The test system of data set [2] is Na^+,K^+-ATPase α1 subunit (interaction with Tat). The data set is described as follows: Co-immunoprecipitation of Tat with endogenous Na^+,K^+-ATPase α1 subunit. It is filed as cell-based, human. The conditions noted are these: HEK293T, Tat86 transfected; ouabain 25 μM, 4 h.
Data set [3] concerns HIV-1 LTR transactivation in HL3T1 cells by supernatants of Tat86-transfected HEK293T cells. The data set is described as follows: Transcellular transactivation assay. The format is cell-based. Conditions: ouabain 25 μM, 4 h; HL3T1 24 h; CAT ELISA. (In an ELISA, binding on a coated surface is turned into a signal by an enzyme label.)
The test system of data set [4] is VSV-G pseudotyped HIV-1NL4.3E-R-Luc production by HEK293T cells. It is filed as cell-based.
For data set [5], the system named is wt HIV-1BRU production by HEK293T cells. It is filed as cell-based. Conditions: p24 ELISA; ouabain; P<0.01 over untreated.
Data set [6] has as its system VSV-G-pseudotyped HIV-1NL4.3E-R-Luc infectivity in Jurkat cells. The format is cell-based.
The test system of data set [7] is HIV-1BRU infectivity in Jurkat cells. The format is cell-based. The conditions noted are these: P < 0.01.
Data set [8] has as its system HIV-1BRU infectivity in primary CD4 + lymphocytes. It is filed as cell-based. Conditions: p24 at 72 h, P < 0.01.
Data set [9] has as its system VSV-G-pseudotyped HIV-1NL4.3E-R-Luc infection of Jurkat cells. The format is cell-based.
For the next data set, the system named is HEK293T cells. Conditions: ouabain 15 h.
The next data set has as its system rat Na^+,K^+-ATPase. Conditions: ref Emanuel et al., 1988; cited from earlier work.
Data set [10] concerns rat Na^+,K^+-ATPase α1 (interaction with Tat). Nature of the data set: Co-immunoprecipitation of Tat with transfected rat Na^+,K^+-ATPase α1. The conditions noted are these: HEK293T transfected with rat α1 constructs and Tat86-TK / Tat11-TK.
The target of data set [11] is Tat86 used in surface plasmon resonance (HIV-1 (strain HXB2), UniProt P04608 1-86). The data set is described as follows: SPR. Background: Surface plasmon resonance follows binding to a sensor surface in real time, without labels.

Turning to `CCN(c1nc(N)c(C(=O)NC(=N)N)nc1Cl)C(C)C` [EIPA, 5-(N-ethyl-N-isopropyl)amiloride], the “effect on HIV-1 replication” value in the data set on HIV-1 replication was “known to limit HIV-1 replication”.

For `C[C@@H]1O[C@@H](O[C@H]2C[C@@H](O)[C@]3(CO)[C@H]4[C@H](O)C[C@]5(C)[C@@H](C6=CC(=O)OC6)CC[C@]5(O)[C@@H]4CC[C@]3(O)C2)[C@H](O)[C@H](O)[C@H]1O` [ouabain], the “effect on Tat protein production” value in data set [1] (protein levels in whole cell extracts, ouabain 25 μM) is “did not affect Tat protein production”. For the same molecule, in data set [2], the “effect on Tat-α1 co-immunoprecipitation (endogenous α1)” value was “abolished this interaction”. For the same molecule, in data set [3], the “effect of ouabain on transcellular transactivation” value is “blocked transcellular transactivation”. Besides, the “production of VSV-G pseudotyped virions” value in data set [4] is “significantly decreased the production of VSV-G pseudotyped virions”. The “production of wt HIV-1BRU virions” value in [5] is “The same was also observed for wt HIV-1BRU virions”. For the same molecule, in data set [6], the “infectivity of virions produced in presence of ouabain” value is reported as “markedly less infectious” and the “viral integration (Alu-PCR) by virions produced in presence of ouabain” value is “reduced viral integration”. The “viral integration (Alu-PCR) by HIV-1BRU produced in presence of ouabain” value in data set [7] is “reduced viral integration”. Also, in data set [7] (p24 at 72 h), the “infectivity of HIV-1BRU produced in presence of ouabain” value was “markedly less infectious”. Further, the “infectivity of HIV-1BRU produced in presence of ouabain” value in [8] is given as “markedly less infectious”. The “effect of ouabain present at infection on virions produced without ouabain” value in data set [9] is recorded as “unaffected by the presence of the drug”. The “cell toxicity during virus production” value in the data set with HEK293T cells is on record as “did not exert significant cell toxicity”. The “sensitivity of rat Na^+,K^+-ATPase enzyme to ouabain” value in the data set on rat Na^+,K^+-ATPase was “insensitive to ouabain”. The “co-immunoprecipitation with Tat / ouabain effect, rat α1” value in data set [10] was “binding is not sensitive to ouabain”.

Turning to heparin, the “amount of free Tat-TK protein in the supernatant” value in [1] (HEK293T, soluble heparin 25 μM) is listed as “increased”.

B1: PMIX, equimolar mixture of the individual P1, P2 and P3 peptides (other, rat)
peptide 1: YEQAESDIMKRQPRNPKTDK
peptide 2: TRRNSVFQQGMKN
peptide 3: LIIRRRPGGWVEKETYY
As usually defined, the IC50 is the point on the concentration scale where inhibition reaches its midpoint. High values mean lower potency, low ones higher potency. B1 displayed an IC50 in data set [11] of 0.5 µM.

B2: synthetic P2 peptide (peptide, UniProt P06685 939-951, looked up)
peptide: TRRNSVFQQGMKN
Turning to B2, half-maximal inhibition in [11] (IC50) required 10 µM.
